These results are taken from patent publication US20190160156A1, “Use of Acid Stable Proteases in Animal Feed, Preferably to Increase Performance of Cocc-Vaccinated Broiler Chickens” (Novozymes A/S, priority 2011, published 2019).

This test deals with male birds Cobb X Cobb chicks. Nature of the test: Floor pen feeding trial of cocci-vaccinated birds with ProAct and enzyme combinations (Example 3). The format is in vivo, male broiler chickens (Cobb X Cobb). To be noted: Day 42, male Cobb X Cobb broilers. As for the experimental part:
A floor pen trial was conducted using day old male birds Cobb X Cobb chicks. A total of 2,160 were allocated to the study. The experiment consisted of 48 pens of 45 male broiler chickens. Treatments were replicated in eight (8) blocks with six (6) treatments randomized in each. The birds were fed nutritionally-adequate basal diets based on corn/soybean meal and adjusted to the bird age by feeding a starter diet from day 1 to 16 and a grower diet from day 17 to 32 and a finisher diet from day 33 to 42. The 6 treatments were as follows:
As treatment RONOZYME® enzyme products, supplied by DSM Nutritional Products, Kaiseraugst, Switzerland have been used.
Ronozyme®AX=80% Ronozyme®WX+20% Ronozyme®A
Ronozyme® ProAct=pure protease product.
All birds received Cocci Vac® B on day 1 of age administered nasally in the hatchery except the positive control birds that were given a standard dose of the coccidiostat Salinomcyin of 60 g/ton of feed throughout the study
At the end of the trial at day 42 the average bird weight (Avg. Wt. Gain) and the average feed consumption (Feed Consump.) were determined and the Feed Conversion Ratio (FRC) was calculated by dividing the feed intake by the weight gain for each treatment

For the molecule `CC[C@@H](C(=O)[C@@H](C)[C@@H](O)[C@H](C)[C@@H]1O[C@@H]([C@@H](CC)C(=O)O)CC[C@@H]1C)[C@H]1O[C@]2(C=C[C@@H](O)[C@]3(CC[C@@](C)([C@H]4CC[C@](O)(CC)[C@H](C)O4)O3)O2)[C@H](C)C[C@@H]1C` [Salinomcyin 60 g/t, Salinomycin], the “Avg. Wt. Gain” value (average bird weight) was determined as 2.490 a. In addition, the “Feed Consump.” value (average feed consumption) was determined as 191.58 a. Under “feed intake divided by weight gain”, the FCR worked out at 1.719 days.
